Test [1] relates to cultured human mast cells (CHMC). As to the kind of experiment: CHMC low cell density ionomycin activation: tryptase assay. Type of test: cell-based. To be noted: low cell density CHMC, tryptase, 3 pt, read-out: LD Tryptase, CHMC, Iono, 3 pt.
The test system is the same in test [2]. As to the kind of experiment: CHMC low cell density IgE activation: tryptase assay. Type of test: cell-based. The following applies: low cell density CHMC, IgE activation, tryptase. Put shortly:
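CHMC were seeded at 1000–1500 cells/well in MT buffer and incubated 1 hr at 37 °C. They were then stimulated with anti-IgE for 30 min at 37 °C, with unstimulated wells as controls. Released tryptase in the supernatant was measured with a fluorogenic substrate after 30 min at room temperature.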

[3] abbreviates: Homo sapiens, Mast cell, 3 pt, read-out: LD Tryptase, CHMC, IgE, 3 pt.
The mark [4] stands for this setting: Homo sapiens, Mast cell, 8 pt, read-out: LD Tryptase, CHMC, IgE, 8 pt.
The mark [5] stands for this setting: 3 pt, read-out: LD Tryptase, CHMC, IgE, 3 pt.
Setting [6] is: 8 pt, read-out: LD Tryptase, CHMC, IgE, 8 pt.

Molecules are shown by their SMILES.

Take `CCOC(=O)N1CCN(c2ccc(Nc3ncc(F)c(NC4CCC4)n3)cc2)CC1` [Compound 1111, N4-Cyclobutyl-N2-[4-(4-ethoxycarbonylpiperazino)phenyl]-5-fluoro-2,4-pyrimidinediamine]: the IC50 in test [1] (Homo sapiens, Mast cell) is above 10 µM; in test [2] (setting [3]), below 10 µM.
For the molecule `CC(=O)N1CCN(c2cccc(Nc3ncc(F)c(Nc4cc(C5CC5)n[nH]4)n3)c2)CC1` [Compound 1112], the IC50 in test [1] (Homo sapiens, Mast cell) was below 10 µM; in test [2] (setting [3]) it was below 10 µM; in test [2] (setting [4]) it was below 10 µM.
Take `CN1CCN(c2ccc(Nc3ncc(F)c(Nc4cc(C5CC5)n[nH]4)n3)cc2)CC1` [Compound 1113, N4-(3-Cyclopropyl-1H-pyrazol-5-yl)-5-fluoro-N2-[4-(4-methylpiperazino)phenyl]-2,4-pyrimidinediamine]: the IC50 in test [1] (Homo sapiens, Mast cell) was above 10 µM; in test [2] (setting [3]) it was below 10 µM; in test [2] (setting [4]), below 10 µM.
`Fc1cnc(Nc2cccc(N3CCOCC3)c2)nc1Nc1cc(C2CC2)n[nH]1` [Compound 1114]: the IC50 in test [1] (Homo sapiens, Mast cell) is above 10 µM; in test [2] (setting [3]), below 10 µM; in test [2] (setting [4]), below 10 µM.
For `CCOC(=O)N1CCN(c2cccc(Nc3ncc(F)c(Nc4cc(C5CC5)n[nH]4)n3)c2)CC1` [Compound 1115], the IC50 was below 10 µM in test [1] (Homo sapiens, Mast cell) and below 10 µM in test [2] (setting [3]).
Turning to `CCOC(=O)N1CCN(c2ccc(Nc3ncc(F)c(Nc4cc(C5CC5)n[nH]4)n3)cc2)CC1` [Compound 1116, N4-(3-Cyclopropyl-1H-pyrazol-5-yl)-N2-[4-(4-ethoxycarbonylpiperazino)phenyl]-5-fluoro-2,4-pyrimidinediamine], the IC50 in test [1] (Homo sapiens, Mast cell) was below 10 µM; in test [2] (setting [3]) it was below 10 µM.
For the molecule `Fc1cnc(Cl)nc1Nc1ccc2c(n1)NCCO2` [Compound 1117, 2-Chloro-5-fluoro-N4-(3,4-dihydro-2H,4H-5-pyrid[1,4]oxazin-6-yl)-4-pyrimidineamine], the IC50 in test [1] and in test [2] (setting [5]) was above 10 µM each time.
For the molecule `CC(C)(C)OC(=O)N1CC(Nc2nc(Nc3ccc(N4CCOCC4)cc3)ncc2F)C1` [Compound 1118, N4-(1-tert-Butoxycarbonylazetidin-3-yl)-5-fluoro-N2-(4-morpholinophenyl)-2,4-pyrimidinediamine], the IC50 in test [1] (Homo sapiens, Mast cell) was below 10 µM; in test [2] (setting [3]) it was below 10 µM.
`CC(=O)N1CCN(c2ccc(Nc3ncc(F)c(NC4CN(C(=O)OC(C)(C)C)C4)n3)cc2)CC1` [Compound 1119, N2-[4-(4-Acetylpiperazino)phenyl]-N4-(1-tert-butoxycarbonylazetidin-3-yl)-5-fluoro-2,4-pyrimidinediamine]: the IC50 is above 10 µM in test [1] (Homo sapiens, Mast cell) and below 10 µM in test [2] (setting [3]).
Take `CC(=O)N1CCN(c2cccc(Nc3ncc(F)c(NC4CN(C(=O)OC(C)(C)C)C4)n3)c2)CC1` [Compound 1120, N2-[3-(4-Acetylpiperazino)phenyl]-N4-(1-tert-butoxycarbonylazetidin-3-yl)-5-fluoro-2,4-pyrimidinediamine]: the IC50 was above 10 µM in test [1] (Homo sapiens, Mast cell) and above 10 µM in test [2] (setting [3]).
Turning to `Fc1cnc(Nc2ccc(N3CCOCC3)cc2)nc1Nc1cc(C2CC2)n[nH]1` [Compound 1121], the IC50 was above 10 µM in test [1] (Homo sapiens, Mast cell); below 10 µM in test [2] (setting [3]); below 10 µM in test [2] (setting [4]).
As to `CCOC(=O)N1CCN(c2ccc(Nc3ncc(F)c(NC4CN(C(=O)OC(C)(C)C)C4)n3)cc2)CC1` [Compound 1122], the IC50 in test [1] (Homo sapiens, Mast cell) is above 10 µM; in test [2] (setting [3]) it was below 10 µM.
Regarding `Fc1cnc(Nc2ccc(N3CCOCC3)cc2)nc1NC1CNC1` [Compound 1123], the IC50 in test [1] (Homo sapiens, Mast cell) was below 10 µM; in test [2] (setting [3]), above 10 µM.
Turning to `CC(=O)N1CCN(c2ccc(Nc3ncc(F)c(NC4CNC4)n3)cc2)CC1` [Compound 1124], the IC50 in test [1] (Homo sapiens, Mast cell) was above 10 µM; in test [2] (setting [3]) it was above 10 µM.
In the case of `CCOC(=O)N1CCN(c2ccc(Nc3ncc(F)c(NC4CNC4)n3)cc2)CC1` [Compound 1125], the IC50 in test [1] (Homo sapiens, Mast cell) is above 10 µM; in test [2] (setting [3]), above 10 µM.
With `Fc1cnc(Nc2cccc(N3CCOCC3)c2)nc1NC1CNC1` [Compound 1126], the IC50 in test [1] (Homo sapiens, Mast cell) is below 10 µM; in test [2] (setting [3]) it was above 10 µM.
Take `CC(=O)N1CCN(c2cccc(Nc3ncc(F)c(NC4CNC4)n3)c2)CC1` [Compound 1127]: the IC50 is above 10 µM in test [1] (Homo sapiens, Mast cell) and below 10 µM in test [2] (setting [3]).
For the molecule `Fc1cnc(Nc2ccc(N3CCOCC3)cc2)nc1Nc1ccc2c(n1)NCCO2` [Compound 1128, N4-(3,4-Dihydro-2H,4H-5-pyrid[1,4]oxazin-6-yl)-5-fluoro-N2-(4-morpholinophenyl)-2,4-pyrimidinediamine], the IC50 in test [1] is above 10 µM; in test [2] (setting [6]), below 10 µM.
As for `CN(c1nc(Nc2ccc(N3CCOCC3)cc2)ncc1F)C1CCC1` [Compound 1139, N4-Cyclobutyl-5-fluoro-N4-methyl-N2-(4-morpholinophenyl)-2,4-pyrimidinediamine], the IC50 in test [1] (Homo sapiens, Mast cell) was above 10 µM; in test [2] (setting [3]), below 10 µM.
For `CC(=O)N1CCN(c2ccc(Nc3ncc(F)c(N(C)C4CCC4)n3)cc2)CC1` [Compound 1140, N2-[4-(4-Acetylpiperazino)phenyl]-N4-cyclobutyl-5-fluoro-N4-methyl-2,4-pyrimidinediamine] the same measures were above 10 µM and below 10 µM.
For the molecule `CN1CCN(c2ccc(Nc3ncc(F)c(Nc4ccc5c(n4)NCCO5)n3)cc2)CC1` [Compound 1141, N4-(3,4-Dihydro-2H,4H-5-pyrid[1,4]oxazin-6-yl)-5-fluoro-N2-[4-(4-methylpiperazino)phenyl]-2,4-pyrimidinediamine], the IC50 in test [1] was above 10 µM; in test [2] (setting [5]) it was below 10 µM; in test [2] (setting [6]) it was below 10 µM.
As to `CN1CCN(c2cccc(Nc3ncc(F)c(Nc4ccc5c(n4)NCCO5)n3)c2)CC1` [Compound 1142, N4-(3,4-Dihydro-2H,4H-5-pyrid[1,4]oxazin-6-yl)-5-fluoro-N2-[3-(4-methylpiperazino)phenyl]-2,4-pyrimidinediamine], the IC50 is above 10 µM in test [1], below 10 µM in test [2] (setting [5]) and below 10 µM in test [2] (setting [6]).
On to `Fc1cnc(Nc2cccc(-c3ncco3)c2)nc1Nc1ccc2c(n1)NCCO2` [Compound 1143, N4-(3,4-Dihydro-2H,4H-5-pyrid[1,4]oxazin-6-yl)-5-fluoro-N2-[3-(oxazol-2-yl)phenyl]-2,4-pyrimidinediamine], for which the IC50 is above 10 µM in test [1], below 10 µM in test [2] (setting [5]) and below 10 µM in test [2] (setting [6]).
As to `COc1cc(Nc2ncc(F)c(Nc3ccc4c(n3)NCCO4)n2)cc(OC)c1OC` [Compound 1145, N4-(3,4-Dihydro-2H,4H-5-pyrid[1,4]oxazin-6-yl)-5-fluoro-N2-(3,4,5-trimethoxyphenyl)-2,4-pyrimidinediamine], the IC50 is above 10 µM in test [1] (Homo sapiens, Mast cell); below 10 µM in test [2] (setting [3]); below 10 µM in test [2] (setting [4]).
Consider `COc1ccc(Nc2ncc(F)c(Nc3ccc4c(n3)NCCO4)n2)cc1Cl` [Compound 1146, N2-(3-Chloro-4-methoxyphenyl)-N4-(3,4-dihydro-2H,4H-5-pyrid[1,4]oxazin-6-yl)-5-fluoro-2,4-pyrimidinediamine], for which the IC50 in test [1] is above 10 µM; in test [2] (setting [5]) it was below 10 µM.
On to `CCOC(=O)N1CCN(c2ccc(Nc3ncc(F)c(N(C)C4CCC4)n3)cc2)CC1` [Compound 1148, N4-Cyclobutyl-N2-[4-(4-ethoxycarbonylpiperazino)phenyl]-5-fluoro-N4-methyl-2,4-pyrimidinediamine], for which the IC50 in test [1] (Homo sapiens, Mast cell) was above 10 µM; in test [2] (setting [3]), below 10 µM; in test [2] (setting [4]) it was below 10 µM.
With `CN(c1nc(Nc2cccc(N3CCOCC3)c2)ncc1F)C1CCC1` [Compound 1149, N4-Cyclobutyl-5-fluoro-N4-methyl-N2-(3-morpholinophenyl)-2,4-pyrimidinediamine], the IC50 in test [1] (Homo sapiens, Mast cell) is above 10 µM; in test [2] (setting [3]), below 10 µM.
In the case of `CC(=O)N1CCN(c2cccc(Nc3ncc(F)c(N(C)C4CCC4)n3)c2)CC1` [Compound 1150, N2-[3-(4-Acetylpiperazino)phenyl]-N4-cyclobutyl-5-fluoro-N4-methyl-2,4-pyrimidinediamine], the IC50 in test [1] (Homo sapiens, Mast cell) is above 10 µM; in test [2] (setting [3]) it was below 10 µM.
On to `CN1CCN(c2cccc(Nc3ncc(F)c(N(C)C4CCC4)n3)c2)CC1` [Compound 1151, N4-Cyclobutyl-5-fluoro-N4-methyl-N2-[3-(4-methylpiperazino)phenyl]-2,4-pyrimidinediamine], for which the IC50 is above 10 µM in test [1] (Homo sapiens, Mast cell); below 10 µM in test [2] (setting [3]); below 10 µM in test [2] (setting [4]).
Consider `CCOC(=O)N1CCN(c2cccc(Nc3ncc(F)c(N(C)C4CCC4)n3)c2)CC1` [Compound 1152, N4-Cyclobutyl-N2-[3-(4-ethoxycarbonylpiperazino)phenyl]-5-fluoro-N4-methyl-2,4-pyrimidinediamine], for which the IC50 in test [1] (Homo sapiens, Mast cell) was above 10 µM; in test [2] (setting [3]), below 10 µM.
Take `COc1cc(C(N)=O)c(Nc2ncc(F)c(N(C)C3CCC3)n2)cc1OCc1ccccc1` [Compound 1153, N2-(2-Aminocarbonyl-5-benzoxy-4-methoxyphenyl)-N4-cyclobutyl-5-fluoro-N4-methyl-2,4-pyrimidinediamine]: the IC50 in test [1] (Homo sapiens, Mast cell) was above 10 µM; in test [2] (setting [3]) it was above 10 µM.
`O=C(Nc1ccc(Nc2ncc(F)c(NC3CCC3)n2)cc1)c1ccccc1` [Compound 1154, N2-(4-Benzamidophenyl)-N4-cyclobutyl-5-fluoro-2,4-pyrimidinediamine]: the IC50 is above 10 µM in test [1] (Homo sapiens, Mast cell) and below 10 µM in test [2] (setting [3]).
In the case of `Fc1cnc(Nc2ccc(N3CCOCC3)cc2)nc1NC1CCCC1` [Compound 1155, N4-Cyclopentyl-5-fluoro-N2-(4-morpholinophenyl)-2,4-pyrimidinediamine], the IC50 was above 10 µM in test [1] (Homo sapiens, Mast cell) and below 10 µM in test [2] (setting [3]).
